Test results published in patent US11360102B2, “Biomarkers for the early detection of Parkinson's disease” (BOSTON MEDICAL CENTER CORPORATION, priority 2015, dated 2022).
Like-named read-outs stand apart in the source and are kept apart here.

Key:
[1] = tested on: PLA2g6(L)-dependent Orai1-mediated SOCE; experiment: TG-induced store-operated Ca2+ entry (SOCE), Fura-2 imaging in human primary skin fibroblasts; assay type: cell-based; details: Skin fibroblast, 10 μM of DES, hPSF, read-out: inhibition of TG-induced Ca^2+ influx
Description: Intracellular Ca^2+ studies were performed using standard Fura-2 imaging technique. Briefly, the cells were loaded with Fura-2/AM (5 μM) (Invitrogen) and cytosolic Ca^2+ (using F340/F380 ratio) was recorded simultaneously in individual cells. Representative traces in the figures show average (±SD) responses from up to 20 cells recorded simultaneously. Ca^2+ changes are shown by ΔRatio (ΔF340/F380), which is the difference between the basal and peak values of Ca^2+ responses. Summary bar graphs show the average (±SE) from 3 independent experiments for each condition; the total number of cells in each experimental group is identified on the graphs.
SOCE was measured in response to extracellular application of 2-2.5 mM Ca^2+ in the presence of TG. Concentration and time of acute TG treatment was titrated for each cell type to ensure >90% loss of Ca^2+ from TG-sensitive stores at the time of Ca^2+ addition. […] To inhibit PLA2g6 activity, (S)-BEL (S-bromoenol lactone, Cayman, USA) was applied (10-50 μM for 20 min in serum-free medium at 37° C.) to the cells after their loading with Fura-2/AM, and was washed away before the start of experiment.

PLA2g6 ex2^KO mice = experiment: L-DOPA challenge test, balance beam test; assay type: in vivo, mouse
Description: The balance beam test (ref 72, 73) was used to assess the ability of ageing ex2^KO and WT mice to maintain balance while walking along a narrow (2 cm) beam placed 20 cm above a soft mattress. Each mouse was placed on a beam for 2 minutes, and its movement was recorded by video camera. The total travel distance, the number of missteps (paw faults, or slips) during travel, and the number of falls off the beam were analyzed for each mouse, and data summarized for each group as mean±SE. The numbers of animals used for each group are identified on the graphs. L-DOPA challenge test (ref 3) was performed on three age groups (12, 16 and 20 months old) ex2^KO male mice with motor deficits. Control balance beam test was performed in the morning a day before L-3,4-dihydroxyphenylalanine (L-DOPA) challenge. In the morning of the following day, all mice received a single dose of L-DOPA (5, 10 or 25 mg/kg, Sigma) via peritoneal injection. Twenty minutes before L-DOPA administration, mice were given 6 mg/kg of benserazide (Sigma) to inhibit peripheral DOPA decarboxylase. The balance beam test was done 1 h after L-DOPA injection, as described above. Video-recorded data for each mouse were analyzed later, and summarized for each group as mean±SE. The numbers of animals used for each age group are identified next to the graph.

PLA2g6 = PLA2g6 activity, modified PLA2 assay kit, fibroblast homogenates; assay type: biochemical, human; details: S-BEL 25 μM for 10 min; hPSF from control, idPD and fPD^R747W patients
Description: A modified PLA2 assay kit (Cayman for MEFs, and AbCam for hPSF) was used as previously described^21,26. Briefly, each sample of live hPSF or MEF cells was homogenized using a cold lysis buffer (10 mM Tris-HCl, pH 7.0, 300 mM sucrose, 0.5% Triton X-100). To identify specific activity of Ca^2+-independent PLA2g6, the assay buffers were modified to contain no Ca^2+. To assess catalytic activity of PLA2g6, the cells were homogenized and treated with 10 mM EGTA for 10 min, which is known to directly displace inhibitory calmodulin, and fully activate PLA2g6. For analysis of PLA2g6 activation by store depletion, live cells were pretreated with TG (5 μM for 10 min) before homogenization, and homogenates were not treated with 10 mM EGTA. The specificity of PLA2g6 activity in both cases was confirmed by its inhibition with S-BEL (25 μM for 10 min), a chiral-specific suicidal substrate^38 that discriminates PLA2g6 from all other phospholipases. […] The reaction was stopped and the generation of free thiols was visualized by addition of DTNB for 5 min: the absorbance was determined at 405 nm using a standard microplate reader. […]

MEF cells = experiment: LC3^mCherry/eGFP autophagic flow, live cell imaging in MEFs; assay type: cell-based, mouse; details: WT MEFs; prolonged TG treatment, 10 nM for 24 hours
Description: Transfection of MEFs was performed using the Amaxa Nucleofector™ system (Lonza, Allendale, N.J., USA). Briefly, the cells were plated in a 6-well plate at a density of 200,000/well. After 24h the cells from each well were collected, centrifuged, re-suspended in 100 μl of electroporation solution (Mirus Bio, Madison, Wis., USA), mixed with 2 μg of the recombinant plasmid DNA and transfected using the T020 program. After electroporation, the cells were plated in 2 ml of warm DMEM containing 10% FBS and 1% penicillin/streptomycin, and grown for 24-48 hours, as specified. Transfection efficiency (verified by expression of GFP or LC3^mCherry/eGFP) was >70%.
Live cell imaging was done using Nikon Ti inverted fluorescence microscope equipped with a Perfect Focus system and environmental chamber (InVivo Scientific). Live cells transfected with LC3^mCherry/eGFP (alone, or in combination with PLA2g6, or its mutants) were imaged in glass-bottom dishes in culture medium at 37° C. and 5% CO2. Images of individual cells were taken using a 60×/1.4 Plan-Apochromat oil immersion objective (Nikon) and filter sets for GFP (ex: 465-496, em: 515-555) and Texas Red (ex: 540-580, em: 600-660). Images of representative cells were analyzed using ImageJ (Wayne Rasband, NIH) software. […]

CC/C(=C(/CC)c1ccc(O)cc1)c1ccc(O)cc1 [DES, diethylstilbestrol]
inhibition at 10 µM ([1]; control group): 80 ± 1% | inhibition at 10 µM ([1]; idPD group): 82 ± 4%

N[C@@H](Cc1ccc(O)c(O)c1)C(=O)O [L-DOPA, L-3,4-dihydroxyphenylalanine]
reduction in the number of missteps (balance beam performance) (PLA2g6 ex2^KO mice; 5 mg/kg body weight L-DOPA, peritoneal injection, test 1 h after, 12-month old ex2^KO animals): 60% | motor coordination of ex2^KO animals after L-DOPA (PLA2g6 ex2^KO mice; 5, 10 or 25 mg/kg, 12, 16 and 20 months old ex2^KO mice): dramatically improved motor coordination

O=C1O/C(=C/Br)CC[C@H]1c1cccc2ccccc12 [S-BEL, S-bromoenol lactone]
effect on PLA2g6 activity (catalytic and TG-induced) (PLA2g6): inhibition

C/C=C(/C)C(=O)O[C@H]1C(C)=C2[C@H]([C@@H]1OC(=O)CCCCCCC)[C@@](C)(OC(C)=O)C[C@H](OC(=O)CCC)[C@@]1(O)[C@H]2OC(=O)[C@@]1(C)O [TG, thapsigargin]
autophagic flow (LC3^mCherry/eGFP) (MEF cells): Autophagic arrest
